Source: PubChem BioAssay (NCI)
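96-well plates; 48 h exposure; 5 concentrations. Endpoints by linear interpolation between flanking doses. Not reached: highest tested concentration assigned. The concentration for 50% growth inhibition is given as GI50. TGI marks complete inhibition of growth.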

Experiments:
Assay in all cases: NCI-60 cell line screen, 48 h
[1] = tested on: RPMI-8226 leukemia
[2] = tested on: HT29 colon
[3] = tested on: MALME-3M melanoma
[4] = tested on: U251 CNS
[5] = tested on: SF-268 CNS
[6] = tested on: UACC-257 melanoma
[7] = tested on: MOLT-4 leukemia
[8] = tested on: TK-10 renal
[9] = tested on: MDA-MB-435
[10] = tested on: SR leukemia

Structure (SMILES)	TGI [1] [µM]	TGI [2] [µM]	TGI [3] [µM]	TGI [4] [µM]	TGI [5] [µM]	TGI [6] [µM]	TGI [7] [µM]	TGI [8] [µM]	TGI [9] [µM]	TGI [10] [µM]	GI50 [2] [nM]	GI50 [8] [µM]	GI50 [1] [µM]	GI50 [4] [µM]	GI50 [5] [µM]	GI50 [6] [µM]	GI50 [7] [µM]	GI50 [3] [µM]	GI50 [9] [µM]
CN(C)CC1CCCC/C1=N/O (stereo not given)	> 100	> 100	> 100	> 100	> 100	> 100	> 100	> 100	–	–	–	–	–	–	–	–	–	–	–
CC#Cc1ccc(-c2ccccc2)s1	–	> 100	–	> 100	> 100	> 100	> 100	> 100	> 100	> 100	–	–	–	–	–	–	–	–	–
CN(C)CC1CCC/C1=N/OC(=O)c1ccccc1 (stereo not given)	> 100	> 100	–	> 100	> 100	> 100	> 100	> 100	–	> 100	–	–	–	–	–	–	–	–	–
COC1=CC(=O)C(C2(OC(C)C)OC(=O)C(Cl)=C2Cl)=CC1=O (stereo not given)	> 100	> 100	> 100	–	> 100	> 100	–	> 100	> 100	–	–	–	–	–	–	–	–	–	–
COc1ccc2c(c1)[n+]([O-])c(C(N)=O)c(N)[n+]2[O-]	> 100	> 100	> 100	> 100	–	94.6	–	–	–	> 100	–	–	–	–	–	–	–	–	–
Cc1ccc(S(=O)(=O)N2CCC2c2ccccc2)cc1 (stereo not given)	> 100	> 100	> 100	> 100	> 100	> 100	> 100	> 100	–	–	–	–	–	–	–	–	–	–	–
C/C(CN1C(=O)c2ccccc2C1=O)=N\NS(=O)(=O)c1ccc(Cl)cc1	> 100	> 100	> 100	> 100	–	> 100	> 100	> 100	–	> 100	–	–	–	–	–	–	–	–	–
Cc1nc(-c2nc(C)c(C(=O)NNC(=O)C[n+]3ccccc3)s2)sc1C(=O)NNC(=O)C[n+]1ccccc1	> 100	> 100	> 100	> 100	> 100	> 100	> 100	> 100	–	–	–	–	–	–	–	–	–	–	–
CCOC(=O)C1Sc2ccccc2N=C1C (stereo not given)	> 100	> 100	> 100	> 100	> 100	> 100	> 100	> 100	–	> 100	–	–	–	–	–	–	–	–	–
O=S1C(=c2ccc(=C3Sc4ccccc4S3)cc2)Sc2ccccc21 (stereo not given)	> 100	49.2	> 100	28.2	37.3	> 100	> 100	> 100	–	> 100	–	–	–	–	–	–	–	–	–
O=C(NC1C=CCC2C(=O)N(c3ccccc3)C(=O)C12)OCc1ccccc1 (stereo not given)	> 100	> 100	–	> 100	> 100	> 100	> 100	> 100	–	> 100	–	–	–	–	–	–	–	–	–
CCC(C)SC1SCC2C(=O)N(C)C3(CC3C)C(=O)OCC(NC(=O)c3nc4ccccc4cc3O)C(=O)NC(C)C(=O)N(C)C1C(=O)N(C)C1(CC1C)C(=O)OCC(NC(=O)c1nc3ccccc3cc1O)C(=O)NC(C)C(=O)N2C (stereo not given)	0.00233	0.00788	0.000422	0.0172	0.00516	0.000219	0.0687	–	0.00019	–	0.0148	0.000654	–	–	–	–	–	–	–
COc1ccc(C(c2cc(OC)c(OC)c(OC)c2)n2cncn2)cc1O (stereo not given)	> 100	1.9	–	> 100	> 100	> 100	> 100	> 100	–	–	330	> 100	0.452	0.446	0.649	> 100	0.51	–	–
CNC(=O)NCCCC(NC(C)=O)C(=O)NCc1ccccc1 (stereo not given)	> 100	> 100	> 100	> 100	> 100	> 100	> 100	> 100	–	–	–	–	–	–	–	–	–	–	–
CN(C)C=Nc1nc(=O)n(C2CCC(CO)O2)cc1F (stereo not given)	> 100	> 100	> 100	> 100	> 100	> 100	> 100	> 100	–	–	–	–	–	–	–	–	–	–	–
CC(=O)Nc1cc2ccc(=O)oc2cc1Cl	> 100	> 100	> 100	> 100	> 100	> 100	> 100	–	> 100	> 100	–	–	–	–	–	–	–	–	–
COc1ccc(/C=C/COC(C)=O)cc1OC	> 100	> 100	> 100	> 100	> 100	> 100	> 100	> 100	–	> 100	–	–	–	–	–	–	–	–	–
O=c1c2cccnc2ncn1CCN1CCCCC1	–	> 100	> 100	> 100	> 100	–	> 100	> 100	–	> 100	–	–	–	–	–	–	–	–	–
N#CC(C(=O)CCC(=O)Nc1ccc(Cl)c(Cl)c1)c1ccccc1 (stereo not given)	> 100	> 100	> 100	> 100	> 100	> 100	> 100	–	–	–	–	–	–	–	–	–	–	–	–
C[C@@]1(O)CC[C@]2(C)C3CCCC3[C@H]12 (stereo not given in full)	> 100	> 100	> 100	> 100	> 100	> 100	> 100	> 100	–	> 100	–	–	–	–	–	–	–	–	–
CN(C)CC(O)c1ccc(/C=C/c2ccc(Cl)cc2)cc1 (stereo not given)	22.4	–	3.34	2.86	2.88	3.15	–	–	3.13	–	–	–	5.34	1.53	1.49	1.63	–	1.6	1.62
Cn1cc(-c2cc3c(N4CCN(c5ncc([C@@](C)(N)c6ccc(F)cc6)cn5)CC4)ncnn3c2)cn1	–	> 100	> 100	> 100	–	> 100	> 100	–	> 100	–	3350	–	–	3.67	–	5	2.52	4.16	3.56
CN1C(=O)C(=O)N2c3ccc(Cl)cc3C3(c4ccccc4)N=CC12O3 (stereo not given)	6.87	16.1	47.2	30.1	25.6	19	7.56	18.1	–	–	–	–	–	–	–	–	–	–	–
